Results published in patent US20230073007A1, “SWITCHING BINDER, PREPARATION METHOD THEREFOR, AND PHARMACEUTICAL COMPOSITION, ASSAY KIT, AND ANTIGEN AND ANTIBODY ASSAY METHOD, EACH USING SAME” (OPTOLANE TECHNOLOGIES INC., priority 2019, published 2023).

Assays:
[1] = system: anti-HRP antibody, anti-hCG antibody, anti-CRP antibody, anti-HBsAg antibody; experiment: One-step immunoassay on solid support, release of switching binder on target antigen binding (FIGS. 8A to 8D); parameters: species or system rabbit, mouse, goat; conditions: after treatment with target antigen (HRP, hCG, CRP, HBsAg); 10 or 20 μM switching binder; fluorescence
Protocol: With reference to FIG. 8A, anti-HRP antibody was treated and fixed overnight on a solid support at a concentration of 1 μg/ml, and the switching binder 100 of SEQ ID NOs. 1 to 4 were each treated at a concentration of 10 μM (100 μl/well) for 2 hours. At this time, after measuring the fluorescence of the bottom, the antigen HRP as an analyte for an IgG antibody of rabbit was treated at a concentration of 10 μg/ml for 1 hour. With reference to FIG. 8B, anti-HCG antibody was treated and fixed overnight on a solid support at a concentration of 1 μg/ml, and the switching binder 100 of SEQ ID NOs. 1 to 4 were each treated at a concentration of 20 μM (100 μl/well) for 2 hours. At this time, after measuring the fluorescence of the bottom, the antigen HCG as an analyte for an IgG antibody of a mouse was treated at a concentration of 100 μg/ml for 2 hours.
With reference to FIG. 8C, anti-CRP antibody was treated and fixed overnight on a solid support at a concentration of 1 μg/ml, and the switching binder 100 of SEQ ID NOs. 1 to 4 were each treated at a concentration of 20 μM (100 μl/well) for 2 hours. At this time, after measuring the fluorescence of the bottom (A), the antigen […] as an analyte for an IgG antibody of rabbit was treated at a concentration of 10 μg/ml for 1 hour. […] At this time, after measuring the fluorescence of the bottom (A), the antigen HBsAg as an analyte for an IgG antibody of a goat was treated at a concentration of 10 μg/ml for 1 hour.
Referring to FIGS. 8A to 8D, the switching binder 100 was tested using the switching binder of SEQ ID NOs. […] The labeling reaction may be a fluorescence reaction. […]
Referring to FIGS. 8A to 8D, it can be seen that the remaining amount (B) of the switching binder 120 bound to the framework region (FR) was reduced compared to the amount (A) of the switching binder 110 bound to the antibody 10 in all of the switching binder of SEQ ID NO. […] In addition, it can be seen that the amount (C) of the switching binder 130 separated from the framework region (FR) is measured. […]
This is because the amount (A) of the switching binder 110 bound to the antibody 10 is the intensity of fluorescence observed on the surface of the support 30, but the amount (C) of the switching binder 130 separated from the framework region (FR) is the intensity of fluorescence observed in the solution phase. […] According to an embodiment of the present disclosure, as described above, it is possible to quantify the target antigen 20 by the difference between the amount of the switching binder 110 bound to the antibody 10 measured in the pretreatment step (S100) and the amount of the switching binder 120 in the remaining amount bound to the framework region (FR) in the assay step (S300). […]

anti-HRP antibody / HRP = experiment: Antigen-binding coefficient of the antibody in solution measured via isolated switching binder (FIGS. 10A to 10D); conditions: target antigen HRP, anti-HRP antibody not immobilized; calculated from amount of isolated switching binder; read-out: antigen-binding coefficient (Kd) of the antibody in solution, measured using the switching binder
From the text: The pretreatment step (S100″) may include providing the switching binder 100 to an antibody 10 to obtain a mixed solution containing a first conjugate (b1) of the antibody 10 and the switching binder 100, and the switching binder 100 not bound to the antibody 10 (S110); and removing the switching binder 100 not bound to the antibody 10 from the mixed solution (S120). For example, the mixed solution passes through a desalting column to remove the unbound switching binder passing through the desalting column […], and only the first conjugate (b1) passing through the desalting column later can be obtained. The above-described method is exemplary, and various known techniques for separating the first conjugate and the switching binder 100 may be referred to.
Then, as the step of providing an analyte, in the antigen processing step (S200″), the step of separating the first conjugate (b1) from the framework regions (FR, FR) by binding the target antigen 20 to the antibody 10 may be performed. […]
Then, the assay step (S300″) may further include the steps of separating the second conjugate (b2) of the antibody 10 to which the switching binder 130 separated from the antibody 10 and the target antigen 20 are bound (S310); and quantifying the separated switching binder 130 (S320). […] Thereafter, only the separated switching binder 130 may be selectively obtained and quantified through a labeling reaction. At this time, as the concentration of the target antigen 20 increases, the amount of the switching binder 130 separated from the second conjugate (b2) increases, thereby increasing the fluorescence amount of the solution.
In an embodiment, in the assay step (S300″), a test kit that can measure the amount of the switching binder 130 separated according to the increase in the concentration of the target antigen 20 and measure the binding strength of the target antigen 20 to the antibody 10 can be provided. In order to measure the binding strength, the antigen-binding coefficient (Kd) of the antibody 10 may be measured. […]

[2] = system: switching binder of SEQ ID NO. 2 (H2) / switching binder of SEQ ID NO. 3 (L1); experiment: FRET test of mutual binding between switching binders H2 and L1 (FIG. 5E)
From the text: 2 (H2) and the switching binder of SEQ ID NO. 3 (L1). Accordingly, it can be confirmed that the switching binder of SEQ ID NO. 2 […] can self-bind and interact with the LAR region of the light chain (VL), and the switching binder of SEQ ID NO. 3 (L1) can self-bind and interact with the HAR region of the heavy chain (VH). Through this, the switching binder 100 having an amino acid sequence extracted from the heavy chain (VH) can bind to the antigen-binding portion 15 including the framework region (FR) of the light chain (VL), and the switching binder 100 having an amino acid sequence extracted from the light chain (VL) can bind to the antigen-binding portion 15 including the framework region (FR) of the heavy chain (VH).

[3] = system: anti-influenza B antibody; experiment: Bead-based antibody binding one-step immunoassay (FIGS. 9A and 9B); conditions: influenza B versus CRP at 10 ng/mL; separated and remaining switching binder quantified
anti-HRP antibody = experiment: SPR analysis of switching binder binding to immobilized antibody (FIG. 7B); conditions: 10 and 20 μM peptide
From the text: Referring to FIG. 7B, in an embodiment, a result of a surface plasmon resonance (SPR) analysis may be confirmed. Surface Plasmon Resonance (SPR) uses a phenomenon that when a material binds to the surface of a metal thin film such as gold, the refractive index of the metal surface changes. When the light is irradiated, the concentration of the material bound to the metal surface can be measured by examining the resonance angle at which the SPR phenomenon occurs among the reflected light.
Specifically, in order to confirm the SPR signal result, the gold surface was treated overnight with 1 mM mercaptoundecanoic acid (MUA) and surface-modified prior to immobilization of the antibody 10. Carbodiimide/N-Hydroxysuccinimide (EDC/NHS, 0.4 M/0.1 M) was mixed in a 1:1 ratio and treated for 10 minutes to activate functional groups. […] The SPR signal can be measured as an average value by repeating the routine of measuring the SPR signal for 3 minutes while the solution is stopped after flowing 1% Tween-20 washing solution for 1 minute three times.
However, the embodiment is not limited to the embodiment of the present disclosure and may include any method capable of measuring the binding strength of the switching binder 100. […] As a result of peptide treatment at a low concentration of 10 μM, shown in the graph on the left (B1), the SPR signal was calculated as the peptide of SEQ ID NO. […]

[4] = system: switching binder of SEQ ID NO. 1 (H1) / switching binder of SEQ ID NO. 4 (L2); experiment: FRET test of mutual binding between switching binders H1 and L2 (FIG. 6E)
From the text: 1 (H1) and the switching binder of SEQ ID NO. 4 […]. Through this, it can be confirmed that the switching binder of SEQ ID NO. 1 (H1) can interact with the LBR region of the light chain (VL), and the switching binder of SEQ ID NO. 4 (L2) can interact with the HBR region of the heavy chain (VH). Through this property, the switching binder 100 binds to the framework region (FR), and thus the same effect as the interaction between the framework regions (FR) can be obtained.

Sequence	remaining amount (B) of switching binder bound to framework region compared to amount (A) bound to antibody [1]	Kd (anti-HRP antibody / HRP)	FRET mutual binding between H2 and L1 [2]	bead-based one-step immunoassay feasibility [3]	binding to the antibody by SPR (anti-HRP antibody)	FRET mutual binding between H1 and L2 [4]
VYYCAREPTGTGIYFDVWGK [H2, VYYCAREPTGTGIYFDVWGK]	reduced	2900 nM	mutual binding	–	–	–
TYLEWYPQKPGQSPKLLIYK [L1, TYLEWYPQKPGQSPKLLIYK]	reduced	890 nM	mutual binding	possible	–	–
VYYCFQGSHVPFTK [L2, V-Y-Y-C-F-Q-G-S-H-V-P-F-T-K]	reduced	1200 nM	–	–	binds the most	mutual binding
SYWIHWVKQRPGQGLEWIGE [H1, SYWIHWVKQRPGQGLEWIGE]	reduced	–	–	possible	–	mutual binding
